Data reported in patent US5101038A, “Novel substance DC 113 and production thereof” (priority 1988, dated 1992).
Converted amounts (≈) assume the structure as drawn.

Tests used:
Solubility = format: physicochemical
[1] = Stability compared with DC-88A; format: physicochemical; settings: relative to known compound DC-88A
[2] = test system: Lymphocytic leukemia P-388 tumor cells; test: Therapeutic effect upon lymphocytic leukemia P-388 tumor; format: in vivo, CDF1 male mice; settings: 24 hours after transplantation
Method: Lymphocytic leukemia P-388 tumor cells (1×10^6 cells) were transplanted intraperitoneally into each of five CDF1 male mice weighing about 22 grams. Twenty-four hours after transplantation, 0.2 ml of a PBS (phosphate-buffered saline) solution of DC 113 was intraperitoneally administered to each mouse. For comparison, 0.2 ml of a PBS solution of mitomycin C was intraperitoneally administered to each of five mice 24 hours after transplantation. The life-prolonging effect of DC 113 thus established is shown below in Table 2 in terms of the T/C ratio [T mean number of days of survival after transplantation in the DC 113 group; C=mean number of days of survival after transplantation in the control group (intraperitoneally given 0.2 ml of PBS)].

[3] = test system: Staphylococcus aureus ATCC 6538P; test: Antimicrobial activity, MIC by agar dilution method (pH 7.0); format: cell-based; settings: ATCC6538P, read-out: Minimum inhibitory concentration (MIC)
Method: (§1) Minimum inhibitory concentrations (MIC) against various bacteria were determined by the agar dilution method (pH 7.0).

Escherichia coli ATCC 26 = test: as above; format: cell-based; settings: ATCC26, read-out: Minimum inhibitory concentration (MIC)
Method: as §1

[4] = test system: Klebsiella pneumoniae ATCC 10031; test: as above; format: cell-based; settings: ATCC10031, read-out: Minimum inhibitory concentration (MIC)
Method: as §1

[5] = test system: Bacillus subtilis No. 10707; test: as above; format: cell-based; settings: read-out: Minimum inhibitory concentration (MIC)
Method: as §1

[6] = test system: Salmonella typhosa ATCC 9992; test: as above; format: cell-based; settings: Salmonella enterica, read-out: Minimum inhibitory concentration (MIC)
Method: as §1

Acute toxicity (LD50) = settings: mouse, in vivo; intravenous, mice

COC(=O)c1cc2c([nH]1)C(=O)C=C1N(C(=O)c3cc4cc(OC)c(OC)c(OC)c4[nH]3)CC3CC123 (stereo not drawn) [DC 113]
Solubility (Solubility; in chloroform, DMSO, methanol, ethyl acetate and acetone): Soluble | Solubility (Solubility; in water and n-hexane): sparingly soluble | Stability [1]: more stable than the known compound DC-88A | Life-prolonging effect (T/C) ([2]; 0.0063 mg/kg i.p.): 130 | Life-prolonging effect (T/C) ([2]; 0.013 mg/kg i.p.): 110 | MIC [3]: 0.0013 µg/mL (≈ 0.00272 µM) | MIC (Escherichia coli ATCC 26): 0.064 µg/mL (≈ 0.134 µM) | MIC [4]: 0.021 µg/mL (≈ 0.044 µM) | MIC [5]: 0.00065 µg/mL (≈ 0.00136 µM) | MIC [6]: 0.1 µg/mL (≈ 0.209 µM) | LD50 (Acute toxicity (LD50)): 0.14 mg/kg

CO[C@@]12[C@H](COC(N)=O)C3=C(C(=O)C(C)=C(N)C3=O)N1C[C@@H]1N[C@@H]12 [Mitomycin C, mitomycin C, reference compound]
Life-prolonging effect (T/C) ([2]; 6 mg/kg i.p.): 151
